Experimental data published in patent publication US6703388B2, “Nitrogen-containing tricyclic compounds and drugs containing the same” (Eisai Co., Ltd., priority 1996, dated 2004).
Read-outs that look alike come from different tables or passages of the source.

Columns and labels:
RBL-2H3 cells = test: Inhibition of serotonin liberation from IgE-sensitized RBL-2H3 cells after antigen stimulation; format: cell-based, rat; conditions: Rattus norvegicus
Text: IgE-sensitized RBL-2H3 cells (i.e., a cell line originating in rat cells) release and produce not only histamine and serotonin but also cytokines such as TNF α and prostaglandins which are inflammatory mediators after stimulation with IgE sepecific antibody. In this experimental system, inhibitory effects on various mediators release were examined by using serotonin as an indication.
The cells were beforehand labeled with [^3H]-labeled serotonin and, at the same time, sensitized with the IgE antibody. After incubating with the compounds of the present invention, the cells were stimulated with the specific antigen. Then the inhibitory activity of each compound was calculated from the amount of the [^3H]-labeled serotonin thus liberated into the medium and the amount of [^3H]-labeled serotonin liberated when no compound of the present invention was added.

human basophils = test: Inhibition of mediator (histamine, peptide leukotriene) liberation from human basophils stimulated with mite antigen; format: cell-based; conditions: enzyme immunoassay
Experimental: 6 ml of 6% dextran (for separating leukocytes, having a high molecular weight) was added to 20 ml of heparinized blood. After stirring well, the resulting mixture was allowed to stand at 37° C. for 30 min and thus erythrocytes were precipitated. The upper layer was taken up and phosphate buffered saline (D-PBS) was added thereto followed by centrifugation at 185 g for 8 minutes to give a crude leukocyte fraction. These cells were subjected to hypotonic hematolysis and then suspended in D-PBS(+) containing 0.1%-BSA. The resulting suspension was used in the subsequent experiment as the leukocyte fraction containing basophils. 0.4 ml of this cell suspension was preliminarily heated to 37° C. for 5 min and then 0.05 ml of a specimen solution was added thereto followed by a pretreatment at 37° C. for 15 min. Next, 0.05 ml of a mite antigen solution was added thereto to induce an antigen-antibody reaction. After 10 min, the reaction was ceased by ice-cooling. Then the reaction mixture was centrifuged at 185 g for 10 min and histamine and peptide leukotrienes in the resulting supernatant were determined by using enzyme immunoassay kits. From the results of the assay, the activities of the acridone derivatives of inhibiting the liberation of histamine and peptide leukotriene were determined.

[1] = [3H]-serotonin release, IgE-sensitized RBL-2H3 cells, antigen stimulation, read-out: IC50 (μM) in serotonin liberation from RBL-2H3 cells
[2] = histamine, read-out: IC50 (μM) in mediator liberation from human basophils: histamine
[3] = peptide leukotriene, read-out: IC50 (μM) in mediator liberation from human basophils: leukotriene

| Structure (SMILES) | IC50 (RBL-2H3 cells; [1]) | further results |
| --- | --- | --- |
| Cc1ccc2c(c1C)N(CCCN)c1ccccc1S2 [Example 1, 1,2-Dimethyl-10-(3-aminopropyl)phenothiazine] | 5 µM | – |
| Cc1ccc2c(c1C)N(Cc1cccc(CN)n1)c1ccccc1S2 [Example 3] | 10 µM | – |
| Cc1ccc2c(c1C)N(CCCN(CC(=O)O)Cc1ccccc1)c1ccccc1S2 [Example 5] | 5 µM | – |
| Cc1ccc2c(c1C)N(Cc1cccc(CNCc3ccccc3)n1)c1ccccc1S2 [Example 6] | 10 µM | – |
| Cc1ccc2c(c1C)N(Cc1cccc(CNCc3ncc[nH]3)n1)c1ccccc1S2 [Example 7] | 8 µM | – |
| Cc1ccc2c(c1C)N(CCCN)c1cc(CCO)ccc1[S+]2[O-] (centres unmarked) [Example 9] | < 1 µM | – |
| Cc1ccc2c(c1C)N(CCCN)c1cc(Br)ccc1[S+]2[O-] (centres unmarked) [Example 10] | 3 µM | – |
| Cc1ccc2c(c1C)N(CCCNCc1cccc(C(=O)O)c1O)c1ccccc1[S+]2[O-] (centres unmarked) [Example 31] | – | IC50 (RBL-2H3 cells; RBL-2H3, read-out: IC50 (μM) in serotonin liberation from RBL-2H3 cells): 0.5 µM |
| COc1ccc(O)c(CNCCCN2c3ccccc3[S+]([O-])c3ccc(C)c(C)c32)c1O (centres unmarked) [Example 38] | 8 µM | – |
| Cc1ccc2c(c1C)N(CCCNCc1cc(Br)cc(F)c1O)c1ccccc1[S+]2[O-] (centres unmarked) [Example 40] | 5 µM | – |
| Cc1ccc2c(c1C)N(CCCNCc1cc(Br)cc(Cl)c1O)c1ccccc1[S+]2[O-] (centres unmarked) [Example 41] | 5 µM | – |
| Cc1ccc2c(c1C)N(CCCNCC1CC1)c1ccccc1[S+]2[O-] (centres unmarked) [Example 43] | 4 µM | – |
| Cc1ccc2c(c1C)N(CCCNCc1ccccc1Cl)c1ccccc1[S+]2[O-] (centres unmarked) [Example 52] | 3 µM | – |
| Cc1ccc2c(c1C)N(CCCNCc1ccccc1C(=O)O)c1ccccc1[S+]2[O-] (centres unmarked) [Example 55] | 8 µM | – |
| Cc1ccc2c(c1C)N(CCCNCc1ccccc1OCC(=O)O)c1ccccc1[S+]2[O-] (centres unmarked) [Example 56] | 3 µM | – |
| Cc1ccc2c(c1C)N(CCCNCc1cccc(-c3nnn[nH]3)c1)c1ccccc1[S+]2[O-] (centres unmarked) [Example 57] | 2 µM | – |
| Cc1ccc2c(c1C)N(CCCNCc1ncc[nH]1)c1ccccc1[S+]2[O-] (centres unmarked) [Example 63] | 3 µM | – |

| Structure (SMILES) | IC50 (RBL-2H3 cells; [1]) | further results |
| --- | --- | --- |
| Cc1ccc2c(c1C)N(CCCNCc1nc3ccccc3s1)c1ccccc1[S+]2[O-] (centres unmarked) [Example 68] | 4 µM | – |
| Cc1ccc2c(c1C)N(CCCNCc1ccccn1)c1ccccc1[S+]2[O-] (centres unmarked) [Example 70] | 2 µM | – |
| Cc1cccc(CNCCCN2c3ccccc3[S+]([O-])c3ccc(C)c(C)c32)n1 (centres unmarked) [Example 71] | 8 µM | – |
| Cc1ccc2c(c1C)N(CCCNCc1ncco1)c1ccccc1[S+]2[O-] (centres unmarked) [Example 72] | 8 µM | – |
| Cc1ccc2c(c1C)N(CCCNCc1[nH]cnc1C)c1ccccc1[S+]2[O-] (centres unmarked) [Example 74] | 2 µM | – |
| Cc1ccc2c(c1C)N(CCCNCc1nccnc1Cl)c1ccccc1[S+]2[O-] (centres unmarked) [Example 75] | 6 µM | – |
| CCOC(=O)/C(C)=C/c1cc(OC)c(CNCCCN2c3ccccc3[S+]([O-])c3ccc(C)c(C)c32)s1 (centres unmarked) [Example 76] | 3 µM | – |
| COc1ncc(CNCCCN2c3ccccc3[S+]([O-])c3ccc(C)c(C)c32)c(OC)n1 (centres unmarked) [Example 78] | 4 µM | – |
| COc1cc(C(N)=O)sc1CNCCCN1c2ccccc2[S+]([O-])c2ccc(C)c(C)c21 (centres unmarked) [Example 79] | 2 µM | – |
| Cc1ccc2c(c1C)N(CCCNCc1ccccc1)c1ccc(C#N)cc1[S+]2[O-] (centres unmarked) [Example 88] | 1 µM | – |
| COc1ccsc1CNCCCN1c2ccc(C#N)cc2[S+]([O-])c2ccc(C)c(C)c21 (centres unmarked) [Example 89] | 2 µM | – |
| COC(=O)c1cccc2c1[S+]([O-])c1ccc(C)c(C)c1N2CCCNCc1ccccc1 (centres unmarked) [Example 91] | 5 µM | – |
| Cc1ccc2c(c1C)N(CCCNCc1ccc(Cl)cc1Cl)c1cc(CCO)ccc1[S+]2[O-] (centres unmarked) [Example 93] | 3 µM | – |
| Cc1ccc2c(c1C)N(CCCNCc1ccc(F)cc1F)c1cc(CCO)ccc1[S+]2[O-] (centres unmarked) [Example 95] | 3 µM | – |
| Cc1ccc2c(c1C)N(CCCN(C)Cc1cccc(Cl)c1O)c1ccccc1[S+]2[O-] (centres unmarked) [Example 167] | – | IC50 (human basophils; [2]): 10 µM; IC50 (human basophils; [3]): 3 µM |
| Cc1ccc2c(c1C)N(CCCN(C)Cc1ccccc1O)c1cc(C(F)(F)F)ccc1[S+]2[O-] (centres unmarked) [Example 187] | – | IC50 (human basophils; [2]): 10 to 30 µM; IC50 (human basophils; [3]): 3 to 10 µM |
